Source: patent US5001128A, “HMG-COA reductase inhibitors” (Rhone-Poulenc Rorer Pharmaceuticals Inc., priority 1989, dated 1991)

Experiments:
[1] = test system: cholesterol synthesis in rat liver; assay: Ex-Vivo Fasted (cholesterol synthesis from [14C] sodium acetate in liver slices of orally dosed fasted rats); details: 1 mg/kg oral in 0.5% methocel, rats fasted 16 hours, livers removed after one hour
Protocol: The second method (designated Ex-Vivo Fasted) used was as follows. Rats of 170-210 g were maintained on a low cholesterol diet for one week prior to use. Drugs (identified in Table I) were given orally in 0.5% methocel to fasted (fasted for 16 hours) rats. After one hour the rats were decapitated and their livers removed and transferred to chilled oxygenated Kreb's-Ringer-bicarbonate buffer (pH 7.4). The livers were then chopped into 0.5 mm slices using a McIlwain tissue chopper, and were suspended in the same buffer. Aliquots of the suspension containing 100 mg tissue were pipetted to culture tubes which contained [^14 C] sodium acetate (2μ Ci, 1 mM). The tubes were gassed with 95% O2 /5 % CO2, capped and incubated at 37° C. in a shaking water bath at 150 oscillation/min. for two hours. The final assay volume was 1.0 ml. After incubation the reaction was stopped by the addition of 1.0 ml of 15% KOH in ethanol, and the internal standard ^3 H-cholesterol was added. The tubes were recapped and the samples were saponified at 75° C. for two hours with periodic mixing. Subsequently an aliquot was removed for protein analysis using Bio-Rad's standard kit, and the remainder of the saponified samples was extracted with 10 ml of petroleum ether for 30 minutes. […] After visualization with iodine the cholesterol spots were cut and counted with liquid scintillation fluid.

HMG-CoA reductase = assay: HMGR Screen (inhibition of solubilized rat liver HMG-CoA reductase, [14C] HMG-CoA); type: biochemical; details: solubilized rat liver microsomal enzyme; 20 μM HMG-CoA; 37° C.; pH 7.0; read-out: IC50 (Micromoles per liter), HMGR Screen
Protocol: The first method used (designated HMGR Screen) was as follows. Male rats were acclimated to an alternate 12 hour light-dark cycle for a period of 2-3 weeks. The animals, weighing 180-230 g, were fed ad libitum a rat chow containing 2% cholestyramine for 5 days prior to sacrifice at the mid-dark period. Liver microsomes were prepared and HMGR enzyme was solubilized from the microsomes by freeze-thaw manipulation in high ionic strength buffer. The enzyme preparation was stored at -80° C. in 300 μl portion samples. Prior to use, the enzyme was activated at 37° C. for 30 minutes in a reaction mixture. The reaction mixture contained in a volume of 240 μl:0.14M potassium phosphate buffer (pH 7.0); 0.18M KCl; 3.5 mM EDTA; 10 mM dithiothreitol; 0.1 mg/ml BSA; 30,000 cpm of [^14 C] HMG-CoA; 20 μM HMG-CoA, and 200 μg of solubilized enzyme with and without inhibitors (in 10 μDMSO). After 5 minutes incubation at 37° C. the reaction was initiated with 0.2 mM NADPH. The final assay volume was 300 μl. The reaction then was terminated with 100 μl of 1N HCl. After an additional incubation for 15 minutes at 37° C. to allow for complete lactonization of the product, the mixture was diluted with 3 ml GDW. […] After the addition of 10 ml of Aquasol , radioactivities of the samples were measured in a scintillation counter.

IC50 (HMG-CoA reductase)	SMILES	inhibition at 1 mg/kg [1]
–	O=C(O)C[C@H](O)C[C@H](O)/C=C/C1=C(c2ccc(F)cc2)C=C(c2ccccc2)C12CCCC2 (relative stereo)	65 ± 4%
0.9 nM	O=C1C[C@@H](O)C[C@H](/C=C/C2=C(c3ccc(F)cc3)C=C(c3ccccc3)C23CCCC3)O1 (relative stereo) [Compound of Example I Step 9, Trans-(E)-6-[2-[2-(4-fluorophenyl)-4-phenyl-spiro[4,4]-nona-1,3-dien-1-yl]ethenyl]-3,4,5,6-tetrahydro-4-hydroxy-2H-pyran-2-one]	–
70 nM	O=C1C[C@@H](O)C[C@H](/C=C/C2=C(c3ccc(F)cc3)C=C(c3ccccc3)C23CCCC3)O1 (relative stereo) [Lactone Form of Compound of Example I Step 9] [Trans-(E)-6-[2-[2-(4-fluorophenyl)-4-phenyl-spiro[4,4]-nona-1,3-dien-1-yl]ethenyl]-3,4,5,6-tetrahydro-4-hydroxy-2H-pyran-2-one]	–
